Read-outs that look alike come from different tables or passages of the source.
Experiments:
NDM-1 = NDM-1 (Klebsiella pneumoniae, UniProt C7C422); assay: biochemical; assay type: biochemical; conditions: read-out: NDM-1 IC50
IMP-1 = IMP-1 (Serratia marcescens, UniProt P52699); assay: biochemical; assay type: biochemical; conditions: read-out: IMP-1 IC50
VIM-1 = VIM-1 (Pseudomonas aeruginosa (strain ATCC 15692 / DSM 22644 / CIP 104116 / JCM 14847 / LMG 12228 / 1C / PRS 101 / PAO1), UniProt A0A0F7KYQ8); assay: Enzyme activity: determination of IC50, fluorescence assay with CCF2-FA substrate (VIM-1); assay type: biochemical
[1] = test system: Escherichia coli expressing NDM-1 (CLB30005); assay: Antibiotic potentiation activity: synergistic concentration (MITC95) with imipenem, OD600 growth; assay type: cell-based; conditions: for Escherichia coli expressing NDM-1 (CLB 30005) MITC95: concentration giving 95% inhibition of bacterial growth; for Escherichia coli MITC95: Escherichia coli expressing NDM-1 (CLB30005), 95% growth inhibition
Summary of the method: (§1)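 Each strain, suspended in saline from overnight colonies and diluted 1:100 into 1.1× CAMHB, is dosed with imipenem at 4 μg/ml (or 1 μg/ml) plus compound, incubated 22–24 h at 35 °C and read by absorbance.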

[2] = test system: Klebsiella pneumoniae expressing VIM-1 (IHMA599644); assay: as above; assay type: cell-based; conditions: for Klebsiella pneumoniae expressing VIM-1 (IHMA 599644) MITC95: concentration giving 95% inhibition of bacterial growth; for Klebsiella pneumoniae MITC95: Klebsiella pneumoniae expressing VIM-1 (IHMA599644), 95% growth inhibition
Summary of the method: as §1

[3] = test system: Serratia marcescens expressing IMP-1 (CL5741); assay: as above; assay type: cell-based; conditions: for Serratia marcescens expressing IMP-1 (CL5741) MITC95: concentration giving 95% inhibition of bacterial growth; for Serratia marcescens MITC95: Serratia marcescens expressing IMP-1 (CL5741), 95% growth inhibition
Summary of the method: as §1

[4] = fluorescence assay with CCF2-FA substrate
[5] = fluorescence assay with CCF2-FA substrate, read-out: VIM-1 IC50
[6] = NDM-1 enzyme, CCF2-FA fluorescence assay
[7] = IMP-1 enzyme, CCF2-FA fluorescence assay
[8] = VIM-1 enzyme, CCF2-FA fluorescence assay, read-out: VIM-1 IC50
[9] = VIM-1 IC50, fluorescence assay with CCF2-FA substrate

Sequence of IMP-1 (P52699 whole entry, looked up): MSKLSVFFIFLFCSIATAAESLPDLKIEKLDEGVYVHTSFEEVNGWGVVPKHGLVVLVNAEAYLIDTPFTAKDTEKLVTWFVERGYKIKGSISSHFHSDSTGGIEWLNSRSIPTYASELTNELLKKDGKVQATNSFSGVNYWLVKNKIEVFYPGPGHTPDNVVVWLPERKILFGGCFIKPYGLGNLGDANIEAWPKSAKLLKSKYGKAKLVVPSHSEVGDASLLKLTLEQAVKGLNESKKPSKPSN
Sequence of NDM-1 (C7C422 whole entry, looked up, species assumed): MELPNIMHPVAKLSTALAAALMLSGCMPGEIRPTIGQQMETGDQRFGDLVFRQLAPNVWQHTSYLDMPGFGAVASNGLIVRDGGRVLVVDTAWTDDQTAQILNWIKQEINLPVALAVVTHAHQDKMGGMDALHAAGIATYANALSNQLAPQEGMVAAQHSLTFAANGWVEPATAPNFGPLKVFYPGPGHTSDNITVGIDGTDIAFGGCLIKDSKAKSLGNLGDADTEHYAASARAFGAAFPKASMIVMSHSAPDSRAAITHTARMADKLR

| Compound | IC50 (NDM-1; [4]) [nM] | IC50 (IMP-1; [4]) [nM] | IC50 (VIM-1; [5]) [nM] | Escherichia coli expressing NDM-1 (CLB 30005) MITC95 [1] [µM] | Klebsiella pneumoniae expressing VIM-1 (IHMA 599644) MITC95 [2] [µM] | Serratia marcescens expressing IMP-1 (CL5741) MITC95 [3] [µM] | IC50 (NDM-1; [6]) [nM] | IC50 (IMP-1; [7]) [nM] | IC50 (VIM-1; [8]) [nM] | Escherichia coli MITC95 [1] [µM] | Klebsiella pneumoniae MITC95 [2] [µM] | Serratia marcescens MITC95 [3] [µM] | IC50 (VIM-1; [9]) [nM] |
| --- | --- | --- | --- | --- | --- | --- | --- | --- | --- | --- | --- | --- | --- |
| NC(=O)c1ccc(-c2cccc(S(N)(=O)=O)c2-c2nn[nH]n2)cc1 [Example 15, 3′-sulfamoyl-2′-(2H-tetrazol-5-yl)biphenyl-4-carboxamide] | 5.96 | 134 | 62.3 | 0.3906 | 18.75 | 15.63 |  |  |  |  |  |  |  |
| NS(=O)(=O)c1nncc(-c2ccc(Br)cc2)c1-c1nn[nH]n1 [Example 277, 5-(4-Bromophenyl)-4-(2H-tetrazol-5-yl)pyridazine-3-sulfonamide] |  |  |  |  |  |  | 296 | 5270 | 1230 | 12.5 | >200 | 125 |  |
| CS(=O)(=O)Nc1cccc(-c2ccnc(S(N)(=O)=O)c2-c2nn[nH]n2)c1 [Example 202, 4-(3-(methylsulfonamido)phenyl)-3-(2H-tetrazol-5-yl)pyridine-2-sulfonamide] | 11.5 | 23.8 | 118 | 0.3906 | 25 | 2.344 |  |  |  |  |  |  |  |
| CC1C(=O)Nc2ccc(-c3cccc(S(N)(=O)=O)c3-c3nn[nH]n3)cc21 (stereo not drawn) [Example 73, 3-(3-methyl-2-oxo-2,3-dihydro-1H-indo1-5-yl)-2-(2H-tetrazol-5-yl)benzenesulfonamide] | 6.49 | 156 | 66.7 | 1.563 | 100 | 18.75 |  |  |  |  |  |  |  |
| Cc1ccccc1-c1cccc(S(N)(=O)=O)c1-c1nn[nH]n1 [Example 325, 2′-methyl-2-(2H-tetrazol-5-yl)-[1,1′-biphenyl]-3-sulfonamide] |  |  |  |  |  |  | 1.3 | 228 | 13.1 | 3.125 | 37.5 | 25 |  |
| COc1cccc(S(N)(=O)=O)c1-c1nnn[nH]1 [Example 257, 3-Methoxy-2-(1H-tetrazol-5-yl)benzenesulfonamide] |  |  |  |  |  |  | 547 | 8280 | 9230 | 1.563 | >200 | 150 |  |
| NS(=O)(=O)c1cccc(-c2cnc(N3CCOCC3)nc2)c1-c1nn[nH]n1 [Example 94, 3-(2-morpholin-4-ylpyrimidin-5-yl)-2-(2H-tetrazol-5-yl)benzenesulfonamide] | 6.32 | 164 | 234 | 2.344 | 100 | 12.5 |  |  |  |  |  |  |  |
| NS(=O)(=O)c1cccc(-c2ccc(O)nc2)c1-c1nn[nH]n1 [Example 80, 3-(6-hydroxypyridin-3-yl)-2-(2H-tetrazol-5-yl)benzenesulfonamide] | 81.8 | 2380 |  | 0.3906 | 25 | 50 |  |  |  |  |  |  | 542 |
| NS(=O)(=O)c1cccc(C2CCCNC2)c1-c1nn[nH]n1 (stereo not drawn) [Example 175, 3-(piperidin-3-yl)-2-(2H-tetrazol-5-yl)benzenesulfonamide] | 552 | 12400 | 3090 | 0.7813 | 75 | 37.5 |  |  |  |  |  |  |  |
| NS(=O)(=O)c1cccc(-c2cncc(F)c2)c1-c1nn[nH]n1 [Example 83, 3-(5-fluoropyridin-3-yl)-2-(2H-tetrazol-5-yl)benzenesulfonamide] | 5.97 | 520 |  | 0.3906 | 25 | 50 |  |  |  |  |  |  | 43.6 |
| NS(=O)(=O)c1nccc(-c2ccc(C3CCNC3)cc2)c1-c1nnn[nH]1 (stereo not drawn) [Example 198, 4-(4-(pyrrolidin-3-yl)phenyl)-3-(1H-tetrazol-5-yl)pyridine-2-sulfonamide] | 68.4 | 1170 | 101 | 0.3906 | 2.344 | 3.125 |  |  |  |  |  |  |  |
